Measurements from paper PMC10949855 (Journal of veterinary pharmacology and therapeutics, 2022).

System: healthy dogs
Assay: Sedation score
Type: in vivo, dogs (Beagles)
[1] = IV CRI 0.2 mg/kg + 0.2 mg/kg/hr for 8 hr, 0.5 hr
[2] = IV CRI 0.2 mg/kg + 0.2 mg/kg/hr for 8 hr, 1 hr
[3] = IV CRI 0.2 mg/kg + 0.2 mg/kg/hr for 8 hr, 1.5 hr
[4] = IV CRI 0.2 mg/kg + 0.2 mg/kg/hr for 8 hr, 2 hr
[5] = IV CRI 0.2 mg/kg + 0.2 mg/kg/hr for 8 hr, 3 hr
[6] = IV CRI 0.2 mg/kg + 0.2 mg/kg/hr for 8 hr, 4 hr
[7] = IV CRI 0.2 mg/kg + 0.2 mg/kg/hr for 8 hr, 5 hr
[8] = IV CRI 0.2 mg/kg + 0.2 mg/kg/hr for 8 hr, 6 hr
[9] = IV CRI 0.2 mg/kg + 0.2 mg/kg/hr for 8 hr, 7 hr
[10] = IV CRI 0.2 mg/kg + 0.2 mg/kg/hr for 8 hr, 8 hr
[11] = IV CRI 0.2 mg/kg + 0.2 mg/kg/hr for 8 hr, 9 hr
[12] = IV CRI 0.2 mg/kg + 0.2 mg/kg/hr for 8 hr, 10 hr
[13] = IV CRI 0.2 mg/kg + 0.2 mg/kg/hr for 8 hr, 11 hr
[14] = IV CRI 0.2 mg/kg + 0.2 mg/kg/hr for 8 hr, 12 hr
[15] = IV CRI 0.2 mg/kg + 0.2 mg/kg/hr for 8 hr, 24 hr
[16] = IV inhibitors, 0.4 mg/kg IV after CYP inhibitors, 0.5 hr
[17] = IV inhibitors, 0.4 mg/kg IV after CYP inhibitors, 1 hr
[18] = IV inhibitors, 0.4 mg/kg IV after CYP inhibitors, 1.5 hr
[19] = IV inhibitors, 0.4 mg/kg IV after CYP inhibitors, 2 hr
[20] = IV inhibitors, 0.4 mg/kg IV after CYP inhibitors, 3 hr
[21] = IV inhibitors, 0.4 mg/kg IV after CYP inhibitors, 4 hr
[22] = IV inhibitors, 0.4 mg/kg IV after CYP inhibitors, 5 hr
[23] = IV inhibitors, 0.4 mg/kg IV after CYP inhibitors, 6 hr
[24] = IV inhibitors, 0.4 mg/kg IV after CYP inhibitors, 7 hr
[25] = IV inhibitors, 0.4 mg/kg IV after CYP inhibitors, 8 hr
[26] = IV inhibitors, 0.4 mg/kg IV after CYP inhibitors, 9 hr
[27] = IV inhibitors, 0.4 mg/kg IV after CYP inhibitors, 10 hr
[28] = IV inhibitors, 0.4 mg/kg IV after CYP inhibitors, 11 hr
[29] = IV inhibitors, 0.4 mg/kg IV after CYP inhibitors, 12 hr
[30] = IV inhibitors, 0.4 mg/kg IV after CYP inhibitors, 24 hr

## Oc1ccc2c(c1)[C@@]13CCCC[C@@]1(O)[C@@H](C2)N(CC1CCC1)CC3 [butorphanol]
[1]
  number of dogs with sedation score 0: 0
  number of dogs with sedation score 1: 3
  number of dogs with sedation score 2: 2
  number of dogs with sedation score 3: 0
[2]
  number of dogs with sedation score 0: 0
  number of dogs with sedation score 1: 3
  number of dogs with sedation score 2: 1
  number of dogs with sedation score 3: 1
[3]
  number of dogs with sedation score 0: 0
  number of dogs with sedation score 1: 3
  number of dogs with sedation score 2: 1
  number of dogs with sedation score 3: 1
[4]
  number of dogs with sedation score 0: 0
  number of dogs with sedation score 1: 3
  number of dogs with sedation score 2: 2
  number of dogs with sedation score 3: 0
[5]
  number of dogs with sedation score 0: 0
  number of dogs with sedation score 1: 3
  number of dogs with sedation score 2: 2
  number of dogs with sedation score 3: 0
[6]
  number of dogs with sedation score 0: 0
  number of dogs with sedation score 1: 4
  number of dogs with sedation score 2: 1
  number of dogs with sedation score 3: 0
[7]
  number of dogs with sedation score 0: 0
  number of dogs with sedation score 1: 4
  number of dogs with sedation score 2: 1
  number of dogs with sedation score 3: 0
[8]
  number of dogs with sedation score 0: 0
  number of dogs with sedation score 1: 4
  number of dogs with sedation score 2: 1
  number of dogs with sedation score 3: 0
[9]
  number of dogs with sedation score 0: 0
  number of dogs with sedation score 1: 4
  number of dogs with sedation score 2: 1
  number of dogs with sedation score 3: 0
[10]
  number of dogs with sedation score 0: 0
  number of dogs with sedation score 1: 3
  number of dogs with sedation score 2: 2
  number of dogs with sedation score 3: 0
[11]
  number of dogs with sedation score 0: 0
  number of dogs with sedation score 1: 5
  number of dogs with sedation score 2: 0
  number of dogs with sedation score 3: 0
[12]
  number of dogs with sedation score 0: 0
  number of dogs with sedation score 1: 5
  number of dogs with sedation score 2: 0
  number of dogs with sedation score 3: 0
[13]
  number of dogs with sedation score 0: 2
  number of dogs with sedation score 1: 3
  number of dogs with sedation score 2: 0
  number of dogs with sedation score 3: 0
[14]
  number of dogs with sedation score 0: 4
  number of dogs with sedation score 1: 1
  number of dogs with sedation score 2: 0
  number of dogs with sedation score 3: 0
[15]
  number of dogs with sedation score 0: 5
  number of dogs with sedation score 1: 0
  number of dogs with sedation score 2: 0
  number of dogs with sedation score 3: 0
IV bolus 0.4 mg/kg IV
  time with moderate sedation or higher (sedation score >1) in at least one dog: 1.5 to 2 h
IV bolus 0.4 mg/kg, 0.5 hr
  number of dogs with sedation score 0: 0
  number of dogs with sedation score 1: 6
  number of dogs with sedation score 2: 0
  number of dogs with sedation score 3: 0
IV bolus 0.4 mg/kg, 1 hr
  number of dogs with sedation score 0: 0
  number of dogs with sedation score 1: 6
  number of dogs with sedation score 2: 0
  number of dogs with sedation score 3: 0
IV bolus 0.4 mg/kg, 1.5 hr
  number of dogs with sedation score 0: 0
  number of dogs with sedation score 1: 5
  number of dogs with sedation score 2: 1
  number of dogs with sedation score 3: 0
IV bolus 0.4 mg/kg, 2 hr
  number of dogs with sedation score 0: 0
  number of dogs with sedation score 1: 5
  number of dogs with sedation score 2: 1
  number of dogs with sedation score 3: 0
IV bolus 0.4 mg/kg, 3 hr
  number of dogs with sedation score 0: 0
  number of dogs with sedation score 1: 6
  number of dogs with sedation score 2: 0
  number of dogs with sedation score 3: 0
IV bolus 0.4 mg/kg, 4 hr
  number of dogs with sedation score 0: 1
  number of dogs with sedation score 1: 5
  number of dogs with sedation score 2: 0
  number of dogs with sedation score 3: 0
IV bolus 0.4 mg/kg, 5 hr
  number of dogs with sedation score 0: 1
  number of dogs with sedation score 1: 5
  number of dogs with sedation score 2: 0
  number of dogs with sedation score 3: 0
IV bolus 0.4 mg/kg, 6 hr
  number of dogs with sedation score 0: 5
  number of dogs with sedation score 1: 1
  number of dogs with sedation score 2: 0
  number of dogs with sedation score 3: 0
IV bolus 0.4 mg/kg, 7 hr
  number of dogs with sedation score 0: 5
  number of dogs with sedation score 1: 1
  number of dogs with sedation score 2: 0
  number of dogs with sedation score 3: 0
IV bolus 0.4 mg/kg, 8 hr
  number of dogs with sedation score 0: 6
  number of dogs with sedation score 1: 0
  number of dogs with sedation score 2: 0
  number of dogs with sedation score 3: 0
IV bolus 0.4 mg/kg, 9 hr
  number of dogs with sedation score 0: 6
  number of dogs with sedation score 1: 0
  number of dogs with sedation score 2: 0
  number of dogs with sedation score 3: 0
IV bolus 0.4 mg/kg, 10 hr
  number of dogs with sedation score 0: 6
  number of dogs with sedation score 1: 0
  number of dogs with sedation score 2: 0
  number of dogs with sedation score 3: 0
IV bolus 0.4 mg/kg, 11 hr
  number of dogs with sedation score 0: 6
  number of dogs with sedation score 1: 0
  number of dogs with sedation score 2: 0
  number of dogs with sedation score 3: 0
IV bolus 0.4 mg/kg, 12 hr
  number of dogs with sedation score 0: 6
  number of dogs with sedation score 1: 0
  number of dogs with sedation score 2: 0
  number of dogs with sedation score 3: 0
IV bolus 0.4 mg/kg, 24 hr
  number of dogs with sedation score 0: 4
  number of dogs with sedation score 1: 0
  number of dogs with sedation score 2: 0
  number of dogs with sedation score 3: 0
[16]
  number of dogs with sedation score 0: 0
  number of dogs with sedation score 1: 6
  number of dogs with sedation score 2: 0
  number of dogs with sedation score 3: 0
[17]
  number of dogs with sedation score 0: 0
  number of dogs with sedation score 1: 6
  number of dogs with sedation score 2: 0
  number of dogs with sedation score 3: 0
[18]
  number of dogs with sedation score 0: 0
  number of dogs with sedation score 1: 6
  number of dogs with sedation score 2: 0
  number of dogs with sedation score 3: 0
[19]
  number of dogs with sedation score 0: 0
  number of dogs with sedation score 1: 4
  number of dogs with sedation score 2: 2
  number of dogs with sedation score 3: 0
[20]
  number of dogs with sedation score 0: 0
  number of dogs with sedation score 1: 5
  number of dogs with sedation score 2: 1
  number of dogs with sedation score 3: 0
[21]
  number of dogs with sedation score 0: 3
  number of dogs with sedation score 1: 3
  number of dogs with sedation score 2: 0
  number of dogs with sedation score 3: 0
[22]
  number of dogs with sedation score 0: 6
  number of dogs with sedation score 1: 0
  number of dogs with sedation score 2: 0
  number of dogs with sedation score 3: 0
[23]
  number of dogs with sedation score 0: 6
  number of dogs with sedation score 1: 0
  number of dogs with sedation score 2: 0
  number of dogs with sedation score 3: 0
[24]
  number of dogs with sedation score 0: 6
  number of dogs with sedation score 1: 0
  number of dogs with sedation score 2: 0
  number of dogs with sedation score 3: 0
[25]
  number of dogs with sedation score 0: 6
  number of dogs with sedation score 1: 0
  number of dogs with sedation score 2: 0
  number of dogs with sedation score 3: 0
[26]
  number of dogs with sedation score 0: 6
  number of dogs with sedation score 1: 0
  number of dogs with sedation score 2: 0
  number of dogs with sedation score 3: 0
[27]
  number of dogs with sedation score 0: 6
  number of dogs with sedation score 1: 0
  number of dogs with sedation score 2: 0
  number of dogs with sedation score 3: 0
[28]
  number of dogs with sedation score 0: 6
  number of dogs with sedation score 1: 0
  number of dogs with sedation score 2: 0
  number of dogs with sedation score 3: 0
[29]
  number of dogs with sedation score 0: 6
  number of dogs with sedation score 1: 0
  number of dogs with sedation score 2: 0
  number of dogs with sedation score 3: 0
[30]
  number of dogs with sedation score 0: 6
  number of dogs with sedation score 1: 0
  number of dogs with sedation score 2: 0
  number of dogs with sedation score 3: 0
SC 0.4 mg/kg
  time with moderate sedation or greater in at least 1 dog: 1.5 to 2 h
SC 0.4 mg/kg, 0.5 hr
  number of dogs with sedation score 0: 0
  number of dogs with sedation score 1: 6
  number of dogs with sedation score 2: 0
  number of dogs with sedation score 3: 0
SC 0.4 mg/kg, 1 hr
  number of dogs with sedation score 0: 0
  number of dogs with sedation score 1: 6
  number of dogs with sedation score 2: 0
  number of dogs with sedation score 3: 0
SC 0.4 mg/kg, 1.5 hr
  number of dogs with sedation score 0: 0
  number of dogs with sedation score 1: 5
  number of dogs with sedation score 2: 1
  number of dogs with sedation score 3: 0
SC 0.4 mg/kg, 2 hr
  number of dogs with sedation score 0: 0
  number of dogs with sedation score 1: 5
  number of dogs with sedation score 2: 1
  number of dogs with sedation score 3: 0
SC 0.4 mg/kg, 3 hr
  number of dogs with sedation score 0: 1
  number of dogs with sedation score 1: 5
  number of dogs with sedation score 2: 0
  number of dogs with sedation score 3: 0
SC 0.4 mg/kg, 4 hr
  number of dogs with sedation score 0: 2
  number of dogs with sedation score 1: 4
  number of dogs with sedation score 2: 0
  number of dogs with sedation score 3: 0
SC 0.4 mg/kg, 5 hr
  number of dogs with sedation score 0: 2
  number of dogs with sedation score 1: 4
  number of dogs with sedation score 2: 0
  number of dogs with sedation score 3: 0
SC 0.4 mg/kg, 6 hr
  number of dogs with sedation score 0: 4
  number of dogs with sedation score 1: 2
  number of dogs with sedation score 2: 0
  number of dogs with sedation score 3: 0
SC 0.4 mg/kg, 7 hr
  number of dogs with sedation score 0: 6
  number of dogs with sedation score 1: 0
  number of dogs with sedation score 2: 0
  number of dogs with sedation score 3: 0
SC 0.4 mg/kg, 8 hr
  number of dogs with sedation score 0: 6
  number of dogs with sedation score 1: 0
  number of dogs with sedation score 2: 0
  number of dogs with sedation score 3: 0
SC 0.4 mg/kg, 9 hr
  number of dogs with sedation score 0: 6
  number of dogs with sedation score 1: 0
  number of dogs with sedation score 2: 0
  number of dogs with sedation score 3: 0
SC 0.4 mg/kg, 10 hr
  number of dogs with sedation score 0: 6
  number of dogs with sedation score 1: 0
  number of dogs with sedation score 2: 0
  number of dogs with sedation score 3: 0
SC 0.4 mg/kg, 11 hr
  number of dogs with sedation score 0: 6
  number of dogs with sedation score 1: 0
  number of dogs with sedation score 2: 0
  number of dogs with sedation score 3: 0
SC 0.4 mg/kg, 12 hr
  number of dogs with sedation score 0: 6
  number of dogs with sedation score 1: 0
  number of dogs with sedation score 2: 0
  number of dogs with sedation score 3: 0
SC 0.4 mg/kg, 24 hr
  number of dogs with sedation score 0: 6
  number of dogs with sedation score 1: 0
  number of dogs with sedation score 2: 0
  number of dogs with sedation score 3: 0
